Assay results reported in US10526297B2, “Benzylideneguanidine derivatives and therapeutic use for the treatment of protein misfolding diseases” (United Kingdom Research and Innovation, priority 2013, dated 2020).
Read-outs that look alike come from different tables or passages of the source.

Assays:
PPP1R15A or PPP1R15B = test: Selectivity assessment inferred from the tests; assay type: cell-based; conditions: inferred from translation inhibition in stressed/non-stressed cells
HeLa cells [1] = test: Assessment of Translation Rates in Unstressed Cells (Test 2); assay type: cell-based; conditions: compounds 50 μM, 0.5-7.5 h, 35S-methionine labelling
Protocol: Following labelling, cells were washed with ice-cold PBS and lysed in 75 μl Laemmli Buffer. […] Gels were then stained with Coomassie Brilliant Blue R-250 and analyzed by phosphorimaging.

HeLa cells [2] = test: Cytoprotection from ER Stress (Test 1); conditions: 2.5 μg/ml tunicamycin 6 h, inhibitors 0.2-5 μM, WST-8 viability 48 h after tunicamycin, relative to control
HeLa cells [3] = test: Assessment of Translation Rates in Stressed Cells (Test 3); conditions: tunicamycin 2.5 μg/ml together with compounds 50 μM, 35S-methionine labelling
HeLa cells [4] = conditions: tunicamycin, cited from earlier work
prion infected mice = conditions: mouse, in vivo; cited from earlier work
PPP1R15A (GADD34) = PPP1R15A (GADD34) (Homo sapiens, UniProt O75807); conditions: cited from earlier work
Chain of PPP1R15A (GADD34) (O75807 whole entry, species assumed): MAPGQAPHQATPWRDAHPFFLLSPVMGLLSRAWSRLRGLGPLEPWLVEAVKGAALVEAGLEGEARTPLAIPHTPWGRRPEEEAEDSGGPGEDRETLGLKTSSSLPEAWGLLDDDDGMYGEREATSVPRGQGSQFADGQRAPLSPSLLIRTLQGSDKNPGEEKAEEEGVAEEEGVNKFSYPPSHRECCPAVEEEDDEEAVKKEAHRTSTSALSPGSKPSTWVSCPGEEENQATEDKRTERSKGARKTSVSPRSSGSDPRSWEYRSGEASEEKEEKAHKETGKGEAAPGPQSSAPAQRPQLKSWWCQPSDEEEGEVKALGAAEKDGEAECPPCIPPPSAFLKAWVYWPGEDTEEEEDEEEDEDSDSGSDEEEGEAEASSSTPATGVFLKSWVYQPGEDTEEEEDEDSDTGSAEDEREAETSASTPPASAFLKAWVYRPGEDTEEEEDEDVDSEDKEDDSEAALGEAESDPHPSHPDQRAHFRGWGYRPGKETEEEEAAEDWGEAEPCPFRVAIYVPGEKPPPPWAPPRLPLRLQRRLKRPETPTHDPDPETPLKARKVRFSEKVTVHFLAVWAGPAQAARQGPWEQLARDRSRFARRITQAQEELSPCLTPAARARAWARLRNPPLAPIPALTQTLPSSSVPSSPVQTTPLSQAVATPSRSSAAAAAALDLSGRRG

non-stressed cells = conditions: cited from earlier work
mutant Huntingtin = conditions: cell-based assays, cited from earlier work
[5] = test system: retinal pigment epithelium (RPE); conditions: rat AMD model; cited from earlier work
[6] = test system: choroidal neovascularization (CNV); conditions: laser-induced rat AMD model; cited from earlier work
[7] = test system: Min6 and INS-1 pancreatic beta-cells; conditions: expression in the ER of Min6 and INS-1 cells; cited from earlier work
PPP1R15B (CReP) = target: T1, PPP1R15B (CReP) (Homo sapiens, UniProt Q5SWA1); conditions: constitutive PPP1R15B (CReP); cited from earlier work
T1 sequence (Q5SWA1 1-713): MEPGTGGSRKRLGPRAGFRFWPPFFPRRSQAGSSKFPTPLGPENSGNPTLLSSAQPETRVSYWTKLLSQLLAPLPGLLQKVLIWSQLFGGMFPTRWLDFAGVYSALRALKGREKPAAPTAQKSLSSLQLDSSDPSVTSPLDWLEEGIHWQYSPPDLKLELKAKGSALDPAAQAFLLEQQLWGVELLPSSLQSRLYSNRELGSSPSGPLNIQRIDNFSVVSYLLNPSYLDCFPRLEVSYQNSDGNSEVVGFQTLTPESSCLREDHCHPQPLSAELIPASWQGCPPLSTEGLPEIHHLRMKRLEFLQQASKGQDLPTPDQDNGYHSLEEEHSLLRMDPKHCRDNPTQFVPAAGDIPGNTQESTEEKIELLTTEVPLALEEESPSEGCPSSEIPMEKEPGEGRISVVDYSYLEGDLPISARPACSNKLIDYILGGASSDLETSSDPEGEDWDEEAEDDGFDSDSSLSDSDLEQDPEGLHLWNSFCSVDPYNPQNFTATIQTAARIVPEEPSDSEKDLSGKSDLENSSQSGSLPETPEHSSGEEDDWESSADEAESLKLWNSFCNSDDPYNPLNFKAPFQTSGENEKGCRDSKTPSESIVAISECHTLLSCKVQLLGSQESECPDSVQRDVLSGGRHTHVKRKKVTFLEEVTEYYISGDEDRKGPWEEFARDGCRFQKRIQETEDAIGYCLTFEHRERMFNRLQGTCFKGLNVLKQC

choroidal blood flow = conditions: in vivo; cited from earlier work
[8] = test system: G93A-SOD1 transgenic mouse; conditions: cited from earlier work
[9] = test system: animal models of alpha-synucleinopathy; conditions: two animal models of alpha-synucleinopathy; cited from earlier work
P0S63del mice = conditions: cited from earlier work

For `N=C(N)N/N=C/c1ccccc1Br` [Example 2, 1-[(E)-[(2-bromophenyl)methylidene]amino]-guanidine], the “Selectivity assessment Selectivity towards PPP1R15A or PPP1R15B” value (PPP1R15A or PPP1R15B) was “inhibit both PPP1R15A and B”, the “Test 2 Translation inhibition in non-stressed cells” value (HeLa cells [1]) was “YES” and the “Test 1 Survival following ER stress (increase %)” value (HeLa cells [2]) was 40%. For the same compound, the “Test 3 Translation attenuation after Tm” value (HeLa cells [3]) was “prolonged”.

In the case of `N=C(N)N/N=C/c1ccccc1F` [Example 3, 1-[(E)-[(2-fluorophenyl)methylidene]amino]-guanidine], the “Test 2 Translation inhibition in non-stressed cells” value (HeLa cells [1]) is reported as “YES”, the “Test 1 Survival following ER stress (increase %)” value (HeLa cells [2]) is reported as 80% and the “Test 3 Translation attenuation after Tm” value (HeLa cells [3]) is reported as “prolonded”.

In the case of `Cc1ccccc1/C=N/NC(=N)N` [Example 4, 1-[(E)-[(2-methylphenyl)methylidene]amino]guanidine], the “Selectivity assessment Selectivity towards PPP1R15A or PPP1R15B” value (PPP1R15A or PPP1R15B) is reported as “inhibit both PPP1R15A and B”, the “Test 2 Translation inhibition in non-stressed cells” value (HeLa cells [1]) is reported as “YES” and the “Test 1 Survival following ER stress (increase %)” value (HeLa cells [2]) is reported as 100%. The “Test 3 Translation attenuation after Tm” value (HeLa cells [3]) was “prolonged”.

With `Cc1nnc(N/N=C/c2ccccc2Cl)[nH]c1=O` [Example 6, 2-chlorobenzaldehyde (6-methyl-5-oxo-4,5-dihydro-1,2,4-triazin-3-yl)hydrazone] the “Selectivity assessment Selectivity towards PPP1R15A or PPP1R15B” value (PPP1R15A or PPP1R15B) was “confirmed selective inhibitors of PPP1R15A”, the “Test 1 Survival following ER stress (increase %)” value (HeLa cells [2]) was 120% and the “Test 3 Translation attenuation after Tm” value (HeLa cells [3]) was “prolonged”.

For `N=C(N)N/N=C/c1ccc(F)cc1Cl` [Example 7, 1-[(E)-[(2-chloro-4-fluorophenyl)methylidene]amino]guanidine], the “Selectivity assessment Selectivity towards PPP1R15A or PPP1R15B” value (PPP1R15A or PPP1R15B) was “inhibit both PPP1R15A and B”, the “Test 2 Translation inhibition in non-stressed cells” value (HeLa cells [1]) was “YES” and the “Test 1 Survival following ER stress (increase %)” value (HeLa cells [2]) was 160%. The “Test 3 Translation attenuation after Tm” value (HeLa cells [3]) was “prolonged”.

In the case of `CC(=O)NC(=N)N/N=C/c1ccccc1Cl` [Example 8, N-{N-[(E)-[(2-chlorophenyl)methylidene]amino]carbamimidoyl}acetamide], the “Selectivity assessment Selectivity towards PPP1R15A or PPP1R15B” value (PPP1R15A or PPP1R15B) is reported as “inhibit both PPP1R15A and B”, the “Test 2 Translation inhibition in non-stressed cells” value (HeLa cells [1]) is reported as “YES” and the “Test 1 Survival following ER stress (increase %)” value (HeLa cells [2]) is reported as 100%. For the same compound, the “Test 3 Translation attenuation after Tm” value (HeLa cells [3]) was “prolonged”.

With `COC(=O)NC(=N)N/N=C/c1ccccc1Cl` [Example 9, methyl N-{N-[(E)-[(2-chlorophenyl)methylidene]amino]carbamimidoyl}carbamate] the “Test 1 Survival following ER stress (increase %)” value (HeLa cells [2]) was 20%.

For `N=C(N)N/N=C/c1ccncc1Cl` [Example 13, 1-[(E)-[(3-chloropyridin-4-yl)methylidene]amino]guanidine], the “Test 1 Survival following ER stress (increase %)” value (HeLa cells [2]) was 60-80%.

With `N=C(N)N/N=C/c1c(F)cccc1Cl` [Example 15, 1-[(E)-[(2-chloro-6-fluorophenyl)methylidene]amino]guanidine] the “Test 1 Survival following ER stress (increase %)” value (HeLa cells [2]) was 160% and the “Test 3 Translation attenuation after Tm” value (HeLa cells [3]) was “prolonged”.

For `N=C(N)N/N=C/c1c(F)cncc1Cl` [Example 16, 1-[(E)-[(3-chloro-5-fluoropyridin-4-yl)methylidene]amino]guanidine], the “Test 2 Translation inhibition in non-stressed cells” value (HeLa cells [1]) was “YES” and the “Test 1 Survival following ER stress (increase %)” value (HeLa cells [2]) was 140%.

For `NC(N)=N/N=C/c1c(Cl)cccc1Cl` [Guanabenz, 2-(2,6-dichlorobenzylidene)hydrazinecarboximidamide], the EC50 (HeLa cells [4]; read-out: median effective concentration (cells surviving ER stress)) is listed as about 400 nM, the “protection of cells from cytotoxic ER stress (in words)” value (shortened to “protection of cells”) (HeLa cells [4]) is listed as “doubled the number of cells surviving ER stress” and the “symptoms of prion infected mice” value (prion infected mice) is listed as “reduces the symptoms”. The “binding to PPP1R15A” value (PPP1R15A (GADD34)) was “binding to a regulatory subunit of protein phosphatase 1, PPP1R15A (GADD34)”, the “translation inhibition in non-stressed cells” value (non-stressed cells) was “does not inhibit translation in non-stressed cells” and the mutant huntingtin accumulation (mutant Huntingtin) was “attenuating accumulation of mutant Huntingtin”. The mutant huntingtin accumulation (mutant Huntingtin; listed as guanabenz) was “reduces mutant huntingtin accumulation in cells”, the “protection of RPE from NalO3-induced degeneration” value [5] was “significantly protected” and the “development of choroidal neovascularization (CNV)” value [6] was “inhibited the development of choroidal neovascularization (CNV)”. For the same compound, the “protection against lethal effects of Insulin Akita mutant expression” value [7] was “protection against the lethal effects”, the “binding to PPP1R15B” value (PPP1R15B (CReP)) was “does not bind” and the choroidal blood flow (choroidal blood flow) was “increased choroidal blood flow markedly”.

In the case of `O=C(/C=C/c1ccccc1)NC(NC(=S)Nc1cccc2cccnc12)C(Cl)(Cl)Cl` (stereo not shown) [Salubrinal], the life span [8] is given as “extends the life span”, the disease manifestations [9] is given as “significantly attenuates disease manifestations” and the “motor capacity in rotarod analysis” value (P0S63del mice; P0S63del mice) is given as “regained almost normal motor capacity”. For the same compound, the toxicity (P0S63del mice; mouse, in vivo) was “toxic”.

In the case of `Clc1cccc(Cl)c1N=C1NCCN1` [clonidine], the “protection of cells” value (HeLa cells [4]) is listed as “Neither the α2-adrenergic receptor agonist clonidine, nor the α2-adrenergic receptor antagonist efaroxan protected cells”.

In the case of `CCC1(C2=NCCN2)Cc2ccccc2O1` (stereo not shown) [efaroxan], the “protection of cells” value (HeLa cells [4]) is listed as “Neither the α2-adrenergic receptor agonist clonidine, nor the α2-adrenergic receptor antagonist efaroxan protected cells”.
